In the supplement of paper PMC10307832:

What was measured:
Test in all cases: relative viability (nuclei count vs DMSO), 5 days (fraction); higher = more cells survive
[1] = compound: O=C(CCCCCCNC(=O)c1cnc(N(c2ccccc2)c2ccccc2)nc1)NO [Ricolinostat] + CC(=O)Nc1cccc(-n2c(=O)n(C3CC3)c(=O)c3c(Nc4ccc(I)cc4F)n(C)c(=O)c(C)c32)c1 [Trametinib] (partner 0.02 µM)
Outline: (§1)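 Relative viability divides the nuclei count in treated wells by that in vehicle wells. Lung cancer cell lines were seeded in 1536-well plates, dosed by pin tool the next day, and fixed and stained after 5 days in one step with final 0.05% Triton X-100, 1% formaldehyde and 1 ug/ml Hoechst. Dosing was a single drug or a fixed anchor-drug dose plus five library-drug doses (not always all listed) in √10 steps, and values are medians of duplicate plates imaged at 4×.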

[2] = compound: C1=CC=C(C(=C1)C2=CC=C(C=C2)C3=CSC4=C3C(=C(C(=O)N4)C#N)O)O + Nc1nc2[nH]cc(CCc3ccc(C(=O)N[C@@H](CCC(=O)O)C(=O)O)cc3)c2c(=O)[nH]1 [Pemetrexed] (partner 0.2 µM)
Outline: as §1

[3] = compound: C1=CC=C(C(=C1)C2=CC=C(C=C2)C3=CSC4=C3C(=C(C(=O)N4)C#N)O)O + Nc1ncn([C@H]2C[C@H](O)[C@@H](CO)O2)c(=O)n1 [Decitabine] (partner 2 µM)
Outline: as §1

[4] = compound: C1=CC=C(C(=C1)C2=CC=C(C=C2)C3=CSC4=C3C(=C(C(=O)N4)C#N)O)O + NC(=O)Nc1cc(-c2cccc(F)c2)sc1C(=O)N[C@H]1CCCNC1 [AZD7762] (partner 0.2 µM)
Outline: as §1

Cell Line	relative viability ([1]; first compound 0.08 µM)	relative viability ([1]; first compound 0.253 µM)	relative viability ([1]; first compound 0.8 µM)	relative viability ([1]; first compound 2.53 µM)	relative viability ([2]; first compound 0.08 µM)	relative viability ([2]; first compound 0.253 µM)	relative viability ([2]; first compound 0.8 µM)	relative viability ([2]; first compound 2.53 µM)	relative viability ([2]; first compound 8 µM)	relative viability ([3]; first compound 0.08 µM)	relative viability ([3]; first compound 0.253 µM)	relative viability ([3]; first compound 0.8 µM)	relative viability ([3]; first compound 2.53 µM)	relative viability ([3]; first compound 8 µM)	relative viability ([4]; first compound 0.08 µM)	relative viability ([4]; first compound 0.253 µM)	relative viability ([4]; first compound 0.8 µM)	relative viability ([4]; first compound 2.53 µM)	relative viability ([4]; first compound 8 µM)
NCI-H1793	0.327	0.389	0.435	0.444	0.69	0.862	0.713	0.687	0.802	0.483	0.5	0.483	0.499	0.49	0.401	0.411	0.473	0.53	0.432
H3255	0.571	0.644	0.677	0.76	0.561	0.563	0.561	0.591	0.54	0.481	0.618		0.644	0.585	0.898	1.07	0.757	0.9	0.848
NCI-H2342	0.636	0.807	0.831	0.78	0.769	0.938	0.713	0.755	0.712	0.826	0.774	0.724	0.729	0.604	0.432	0.536	0.446	0.474	0.358
NCI-H838	0.495	0.546	0.548	0.375	0.209	0.291	0.253	0.233	0.243	0.456	0.5	0.483	0.457	0.417	0.914	0.923	1.02	0.875	0.839
NCI-H1755	0.694	0.678	0.814	0.779	0.463	0.469	0.545	0.439	0.714	0.736	0.723	0.722	0.749	0.731	0.44	0.466	0.572	0.435	0.377
NCI-H1651	0.768	0.794	0.83	0.835	0.386	0.62	0.513	0.617	0.549	0.538	0.639	0.548	0.593	0.464	0.496	0.454	0.428	0.479	0.334
NCI-H2170	0.921	0.879	0.985	0.973	0.279	0.268	0.285	0.254	0.261	0.551	0.467	0.467	0.454	0.446	0.898	0.722	0.875	0.842	0.548
NCI-H1915	0.261	0.31	0.309	0.3	0.437	0.443	0.486	0.481	0.506	0.263	0.269	0.251	0.252	0.262	0.657	0.754	0.696	0.697	0.649
EPLC-272H		0.284	0.313	0.26	0.346	0.249	0.297	0.32	0.441	0.385		0.329	0.356	0.35	0.258		0.247	0.208	0.183
NCI-H2087	0.211	0.188	0.173	0.233	0.608	0.671	0.675	0.67	0.747	0.279	0.31	0.284	0.259	0.254	1.58	1.2	1.25	1.41	0.75
A-427	0.652	0.776	0.723	0.654	0.941	1.11	1.03	1.01	0.989	0.517	0.595	0.567	0.563	0.656	0.672	0.81	0.746	0.776	0.716
NCI-H460	0.114	0.169	0.184	0.0996	0.0846	0.0612	0.0666	0.0616	0.0618	0.387	0.437	0.531	0.5	0.398	0.579	0.68	0.604	0.611	0.585
NCI-H23	0.445	0.414	0.428	0.406	0.536	0.619	0.59	0.627	0.653	0.305	0.33	0.337	0.327	0.312	0.232	0.168	0.239	0.229	0.229
NCI-H1437	0.458	0.502	0.392	0.356	0.301	0.371	0.324	0.323	0.323	0.515	0.674	0.57	0.596	0.466	1.1	1.27	1.12	1.22	1.15
EKVX	0.283	0.282	0.426	0.368	0.425	0.497	0.399	0.465	0.336	0.396	0.412	0.857	0.695	0.326	0.696	0.699	0.725	0.746	0.595
